Source: patent publication US11498899B2, “Nitrone herbicides” (FMC Corporation, priority 2016, dated 2022)

Tests used:
[1] = system: barnyardgrass (Echinochloa crus-galli); assay: Test A preemergence, visual injury rating 0-100 (0 no effect, 100 complete control); assay type: in vivo; conditions: for Barnyardgrass plant response rating: 31 g ai/ha, 0 to 100 scale (0 no effect, 100 complete control), approx. 10 days; for Barnyardgrass plant response rating (0 to 100 scale): 125 g ai/ha
[2] = system: foxtail, green (green foxtail, Setaria viridis); assay: Test A preemergence, visual injury rating 0-100; assay type: in vivo; conditions: for Foxtail, Green plant response rating: 31 g ai/ha, 0 to 100 scale (0 no effect, 100 complete control), approx. 10 days; for Foxtail, Green plant response rating (0 to 100 scale): 125 g ai/ha
[3] = system: kochia (Kochia scoparia); assay: Test A preemergence, visual injury rating 0-100; assay type: in vivo; conditions: for Kochia plant response rating: 31 g ai/ha, 0 to 100 scale (0 no effect, 100 complete control), approx. 10 days; for Kochia plant response rating (0 to 100 scale): 125 g ai/ha
[4] = system: pigweed (Amaranthus retroflexus); assay: Test A preemergence, visual injury rating 0-100; assay type: in vivo; conditions: for Pigweed plant response rating: 31 g ai/ha, 0 to 100 scale (0 no effect, 100 complete control), approx. 10 days; for Pigweed plant response rating (0 to 100 scale): 125 g ai/ha
[5] = system: ragweed (common ragweed, Ambrosia elatior); assay: Test A preemergence, visual injury rating 0-100; assay type: in vivo; conditions: for Ragweed plant response rating: 31 g ai/ha, 0 to 100 scale (0 no effect, 100 complete control), approx. 10 days; for Ragweed plant response rating (0 to 100 scale): 125 g ai/ha
[6] = system: ryegrass, Italian (Italian ryegrass, Lolium multiflorum); assay: Test A preemergence, visual injury rating 0-100; assay type: in vivo; conditions: for Ryegrass, Italian plant response rating: 31 g ai/ha, 0 to 100 scale (0 no effect, 100 complete control), approx. 10 days; for Ryegrass, Italian plant response rating (0 to 100 scale): 125 g ai/ha
[7] = system: barnyardgrass (Echinochloa crus-galli); assay: Test A postemergence, visual injury rating 0-100; assay type: in vivo; conditions: 0 to 100 scale
[8] = system: blackgrass (Alopecurus myosuroides); assay: Test A postemergence, visual injury rating 0-100; assay type: in vivo; conditions: 0 to 100 scale
[9] = system: corn (Zea mays); assay: Test A postemergence, visual injury rating 0-100; assay type: in vivo; conditions: 0 to 100 scale
[10] = system: foxtail, green (green foxtail, Setaria viridis); assay: Test A postemergence, visual injury rating 0-100; assay type: in vivo; conditions: 0 to 100 scale
[11] = system: galium (catchweed bedstraw, Galium aparine); assay: Test A postemergence, visual injury rating 0-100; assay type: in vivo; conditions: 0 to 100 scale
[12] = system: kochia (Kochia scoparia); assay: Test A postemergence, visual injury rating 0-100; assay type: in vivo; conditions: 0 to 100 scale
[13] = system: pigweed (Amaranthus retroflexus); assay: Test A postemergence, visual injury rating 0-100; assay type: in vivo; conditions: 0 to 100 scale
[14] = system: ragweed (common ragweed, Ambrosia elatior); assay: Test A postemergence, visual injury rating 0-100; assay type: in vivo; conditions: 0 to 100 scale
[15] = system: ryegrass, Italian (Italian ryegrass, Lolium multiflorum); assay: Test A postemergence, visual injury rating 0-100; assay type: in vivo; conditions: 0 to 100 scale
[16] = system: wheat (Triticum aestivum); assay: Test A postemergence, visual injury rating 0-100; assay type: in vivo; conditions: 0 to 100 scale
[17] = system: ducksalad (Heteranthera limosa); assay: Test B flooded paddy test, visual rating 0-100; conditions: Flood, 250 g ai/ha, applied to paddy water, rated after 13 to 15 days
[18] = system: barnyardgrass (Echinochloa crus-galli); assay: Test B flooded paddy test, visual rating 0-100; conditions: Flood, 250 g ai/ha, applied to paddy water, rated after 13 to 15 days
[19] = system: rice (Oryza sativa); assay: Test B flooded paddy test, visual rating 0-100 (0 no effect, 100 complete control); conditions: Flood, 250 g ai/ha, applied to paddy water, rated after 13 to 15 days

| SMILES | Barnyardgrass plant response rating [1] | Barnyardgrass plant response rating (0 to 100 scale) [1] | Foxtail, Green plant response rating [2] | Foxtail, Green plant response rating (0 to 100 scale) [2] | Kochia plant response rating [3] | Kochia plant response rating (0 to 100 scale) [3] | Pigweed plant response rating [4] | Pigweed plant response rating (0 to 100 scale) [4] | Ragweed plant response rating [5] | Ragweed plant response rating (0 to 100 scale) [5] | Ryegrass, Italian plant response rating [6] | Ryegrass, Italian plant response rating (0 to 100 scale) [6] | Barnyardgrass plant response rating ([7]; 31 g ai/ha) | Barnyardgrass plant response rating ([7]; 125 g ai/ha) | Blackgrass plant response rating ([8]; 31 g ai/ha) | Blackgrass plant response rating ([8]; 125 g ai/ha) | Corn plant response rating ([9]; 31 g ai/ha) | Corn plant response rating ([9]; 125 g ai/ha) | Foxtail, Green plant response rating ([10]; 31 g ai/ha) | Foxtail, Green plant response rating ([10]; 125 g ai/ha) | also measured |
| --- | --- | --- | --- | --- | --- | --- | --- | --- | --- | --- | --- | --- | --- | --- | --- | --- | --- | --- | --- | --- | --- |
| CC1=[N+]([O-])[C@H](C(=O)Nc2cccc(F)c2F)[C@@H](c2ccc(C(F)(F)F)cc2)C1 [Compound 30, (2S,3R)—N-(2,3-difluorophenyl)-3,4-dihydro-5-methyl-3-[4-(trifluoromethyl)phenyl]-2H-pyrrole-2-carboxamide 1-oxide] | 100 | 100 | 100 | 100 | 0 | 80 | 0 | 90 | 30 | 90 | 0 | 90 | 30 | 70 | 30 | 60 | 0 | 70 | 30 | 80 | Galium plant response rating ([11]; 31 g ai/ha): 50; Galium plant response rating ([11]; 125 g ai/ha): 50; Kochia plant response rating ([12]; 31 g ai/ha): 0; Kochia plant response rating ([12]; 125 g ai/ha): 0; Pigweed plant response rating ([13]; 31 g ai/ha): 20; Pigweed plant response rating ([13]; 125 g ai/ha): 30; Ragweed plant response rating ([14]; 31 g ai/ha): 0; Ragweed plant response rating ([14]; 125 g ai/ha): 40; Ryegrass, Italian plant response rating ([15]; 31 g ai/ha): 20; Ryegrass, Italian plant response rating ([15]; 125 g ai/ha): 50; Wheat plant response rating ([16]; 31 g ai/ha): 40; Wheat plant response rating ([16]; 125 g ai/ha): 50; melting point: 113 to 117 °C; Ducksalad plant response rating (0 to 100 scale) [17]: 100; Barnyardgrass plant response rating (0 to 100 scale) [18]: 85; Rice plant response rating (0 to 100 scale) [19]: 50 |
| CC1=[N+]([O-])[C@H](C(=O)Nc2cccc(F)c2F)[C@@H](c2ccc(C)cc2)C1 [Compound 42, (2S,3R)—N-(2,3-Difluorophenyl)-3,4-dihydro-5-methyl-3-(4-methylphenyl)-2H-pyrrole-2-carboxamide 1-oxide] | 100 | 100 | 100 | 100 | 0 | 90 | 0 | 80 | 0 | 70 | 0 | 80 | 50 | 90 | 80 | 80 | 20 | 50 | 50 | 90 | Galium plant response rating ([11]; 31 g ai/ha): 40; Galium plant response rating ([11]; 125 g ai/ha): 60; Kochia plant response rating ([12]; 31 g ai/ha): 0; Kochia plant response rating ([12]; 125 g ai/ha): 30; Pigweed plant response rating ([13]; 31 g ai/ha): 0; Pigweed plant response rating ([13]; 125 g ai/ha): 20; Ragweed plant response rating ([14]; 31 g ai/ha): 0; Ragweed plant response rating ([14]; 125 g ai/ha): 30; Ryegrass, Italian plant response rating ([15]; 31 g ai/ha): 0; Ryegrass, Italian plant response rating ([15]; 125 g ai/ha): 30; Wheat plant response rating ([16]; 31 g ai/ha): 20; Wheat plant response rating ([16]; 125 g ai/ha): 80; Ducksalad plant response rating (0 to 100 scale) [17]: 100; Barnyardgrass plant response rating (0 to 100 scale) [18]: 90; Rice plant response rating (0 to 100 scale) [19]: 30 |
| CC1=[N+]([O-])[C@@H](C(=O)Nc2cccc(F)c2F)[C@H](c2cccc(C(F)(F)F)c2)C1 [Compound 45] | 40 | 100 | 90 | 100 | 0 | 20 | 0 | 0 | 0 | 80 | 10 | 80 | 10 | 50 | 20 | 60 | 40 | 50 | 30 | 80 | Galium plant response rating ([11]; 31 g ai/ha): 20; Galium plant response rating ([11]; 125 g ai/ha): 30; Kochia plant response rating ([12]; 31 g ai/ha): 0; Kochia plant response rating ([12]; 125 g ai/ha): 0; Pigweed plant response rating ([13]; 31 g ai/ha): 0; Pigweed plant response rating ([13]; 125 g ai/ha): 20; Ragweed plant response rating ([14]; 31 g ai/ha): 0; Ragweed plant response rating ([14]; 125 g ai/ha): 0; Ryegrass, Italian plant response rating ([15]; 31 g ai/ha): 10; Ryegrass, Italian plant response rating ([15]; 125 g ai/ha): 40; Wheat plant response rating ([16]; 31 g ai/ha): 30; Wheat plant response rating ([16]; 125 g ai/ha): 60; Ducksalad plant response rating (0 to 100 scale) [17]: 95; Barnyardgrass plant response rating (0 to 100 scale) [18]: 75; Rice plant response rating (0 to 100 scale) [19]: 0 |
